This test concerns the target T1, Angiotensin II-Rezeptor (Rattus norvegicus, UniProt P25095).
T1 construct: Das Gewebe (Rattenlunge) wird in Tris-Puffer; from tissue; host or cells: rat lung homogenate (membrane pellet, 20,000 x g)
T1 sequence (P25095 1-359): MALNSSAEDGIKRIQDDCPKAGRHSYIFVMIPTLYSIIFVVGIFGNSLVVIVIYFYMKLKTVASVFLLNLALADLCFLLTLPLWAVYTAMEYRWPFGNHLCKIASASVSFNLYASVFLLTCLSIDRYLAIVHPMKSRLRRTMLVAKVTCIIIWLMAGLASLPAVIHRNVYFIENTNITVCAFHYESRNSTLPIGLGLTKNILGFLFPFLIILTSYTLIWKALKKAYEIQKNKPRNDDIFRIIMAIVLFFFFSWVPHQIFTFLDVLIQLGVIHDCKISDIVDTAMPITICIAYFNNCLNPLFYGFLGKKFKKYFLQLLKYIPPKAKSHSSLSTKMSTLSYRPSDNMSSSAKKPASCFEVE
Kind of test: Angiotensin II receptor binding ([125I]-angiotensin II displacement, rat lung homogenate). The settings on record: Rattenlunge homogenate, 50 pM [¹²⁵I]-Angiotensin II, 60 Min. bei 37°C; read-out: IC₅₀. On the set-up: species or system Ratte. How it is done: Methodenbeschreibung Angiotensin II-Rezeptorbindung
Das Gewebe (Rattenlunge) wird in Tris-Puffer (50 mMol Tris, 150 mMol NaCl, 5 mMol EDTA, pH 7.40) homogenisiert und zweimal je 20 Min. bei 20.000 x g zentrifugiert. Das endgültige Pellet wird in Inkubations-Puffer (50 mMol Tris, 5 mMol MgCl₂, 0,2 % BSA, pH 7,40) 1:75, bezogen auf das Feuchtgewicht des Gewebes, resuspendiert. Je 0,1 ml Homogenat wird für 60 Min. bei 37°C mit 50 pM [¹²⁵I]-Angiotensin II (NEN, Dreieich, FRG) und steigenden Konzentrationen der Testsubstanz in einem Gesamtvolumen von 0,25 ml inkubiert. Die Inkubation wird durch rasche Filtration durch Glasfiber-Filtermatten beendet. Die Filter werden je 4 ml eiskaltem Puffer (25 mMol Tris, 2.5 mMol MgCl₂, 0,1 % BSA, pH 7,40) gewaschen. Die gebundene Radioaktivität wird in einem Gamma-Counter ermittelt. Aus der Dosis-Wirkungskurve wird der entsprechende IC₅₀-Wert ermittelt.
Turning to `CCCc1nc2c(C)cc(-c3nc4c(n3C)CCCC4)cc2n1Cc1ccc(-c2ccccc2C(=O)O)cc1` [Substanz B, 4'-[[2-n-Propyl-4-methyl-6-(1-methyl-5,6,7,8-tetrahydrobenzimidazol-2-yl)-1H-benzimidazol-1-yl]-methyl]-biphenyl-2-carbonsäure], the IC50 turned out to be 3.8 nM.
The value for `CCc1nc2c(C)cc(-c3nc4c(n3CC)CCCC4)cc2n1Cc1ccc(-c2ccccc2-c2nnn[nH]2)cc1` [Substanz G, 4'-[[2-Ethyl-4-methyl-6-(1-ethyl-5,6,7,8-tetrahydro-benzimidazol-2-yl)-1H-benzimidazol-1-yl]-methyl]-2-(1H-tetrazol-5-yl)-biphenyl-hydrat] was 1.6 nM; that for `CCCc1nc2c(C)cc(-c3nc4c(n3CC(=O)O)CCCC4)cc2n1Cc1ccc(-c2ccccc2C(=O)O)cc1` [Substanz F, 4'-[[2-n-Propyl-4-methyl-6-(1-carboxymethyl-5,6,7,8-tetrahydrobenzimidazol-2-yl)-1H-benzimidazol-1-yl]-methyl]-biphenyl-2-carbonsäure-semihydrat] was 38 nM; that for `CCCc1nc2c(C)cc(-c3nc4c([nH]3)CCCC4)cc2n1Cc1ccc(-c2ccccc2C(=O)O)cc1` [Substanz A, 4'-[[2-n-Propyl-4-methyl-6-(5,6,7,8-tetrahydrobenzimidazol-2-yl)-1H-benzimidazol-1-yl]-methyl]-biphenyl-2-carbonsäure] was 12 nM.
For `CCCc1nc2c(C)cc(-c3nc4c(n3C)CCCC4)cc2n1Cc1ccc(-c2ccccc2-c2nnn[nH]2)cc1` [Substanz C, 4'-[[2-n-Propyl-4-methyl-6-(1-methyl-5,6,7,8-tetrahydrobenzimidazol-2-yl)-1H-benzimidazol-1-yl]-methyl]-2-(1H-tetrazol-5-yl)biphenyl], the IC50 stood at 2.6 nM.
For the compound `CCCc1nc2c(C)cc(-c3nc(-c4ccccc4)c(C)n3C)cc2n1Cc1ccc(-c2ccccc2C(=O)O)cc1` [Substanz I, 4'-[[2-n-Propyl-4-methyl-6-(1,5-dimethyl-4-phenyl-imidazol-2-yl)-1H-benzimidazol-1-yl]-methyl]-biphenyl-2-carbonsäure-hydrat], the IC50 came to 3.2 nM.
On to `CCCc1nc2c(C)cc(-c3nc(C(C)C)c(C)n3C)cc2n1Cc1ccc(-c2ccccc2C(=O)O)cc1` [Substanz K, 4'-[[2-n-Propyl-4-methyl-6-(4-isopropyl-1,5-dimethyl-imidazol-2-yl)-1H-benzimidazol-1-yl]-methyl]-biphenyl-2-carbonsäure x 1,25 Wasser], for which the IC50 is 19.5 nM.
On to `CCCc1nc2c(C)cc(C3=NC(C)(C)CO3)cc2n1Cc1ccc(-c2ccccc2C(=O)O)cc1` [Substanz H, 4'-[[2-n-Propyl-4-methyl-6-(4,4-dimethyl-oxazolin-2-yl)-1H-benzimidazol-1-yl]-methyl]-biphenyl-2-carbonsäure-di-trifluoracetat], for which the IC50 stood at 37 nM.
For the compound `CCc1nc2c(C)cc(-c3nc4c(n3-c3ccccc3)CCCC4)cc2n1Cc1ccc(-c2ccccc2C(=O)O)cc1` [Substanz E, 4'-[[2-Ethyl-4-methyl-6-(1-phenyl-5,6,7,8-tetrahydrobenzimidazol-2-yl)-1H-benzimidazol-1-yl]-methyl]-biphenyl-2-carbonsäure-hydrat], the IC50 was determined as 46 nM.
Regarding `CCCc1nc2c(C)cc(-c3nc4c(n3Cc3ccccc3)CCCC4)cc2n1Cc1ccc(-c2ccccc2C(=O)O)cc1` [Substanz D, 4'-[[2-n-Propyl-4-methyl-6-(1-benzyl-5,6,7,8-tetrahydrobenzimidazol-2-yl)-1H-benzimidazol-1-yl]-methyl]-biphenyl-2-carbonsäure], the IC50 worked out at 6 nM.

Values taken from patent EP0566020A1, “Benzimidazoles, pharmaceutical compositions thereof and processes for their preparation” (Dr. Karl Thomae GmbH, priority 1992, dated 1993).
